Earlier results in US5585379A, “Acyclovir antiviral gel composition” (AGIS Industries (1983) Ltd., priority 1992, dated 1996).
Read-outs that look alike come from different tables or passages of the source.

Legend:
[1] = tested on: herpes simplex virus infections
[2] = tested on: herpes simplex virus; conditions: in vitro and in vivo
[3] = oral

solubility in water (words): low solubility in water
solubility in water (words) (listed as acyclovir): poor water-solubility
SMILES: Nc1nc2c(ncn2COCCO)c(=O)[nH]1 [Acyclovir, 9-(2-hydroxyethoxymethyl)guanine]
solubility in hydrophobic solvent systems (hydrophobic solvent systems): almost totally insoluble in hydrophobic solvent systems
efficacy of topical therapy compared to oral or parenteral [1]: lacks efficacy as compared to oral or parenteral administrations
antiviral activity against herpes simplex virus (words) [2]: active against herpes simplex virus
antiviral activity against herpes simplex virus (words) ([2]; listed as acyclovir): potent antiviral activity against herpes simplex virus
therapeutic effect on vulvar vestibulitis [3]: therapeutic effect on vulvar vestibulitis
